Reference: the supplement of paper PMC5844555

Assays:
Assay in all cases: 3' UTR reporter interaction score (median-centred robust z-score of log2 firefly/Renilla activity); higher = less repression of the 3' UTR reporter
Conditions in all cases: HEK293T; 48 h
PHF6 = tested on: PHF6
Procedure, shortened: (§1)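 HEK293T cells (10,000/well, 96-well plates) were co-transfected using DharmaFECT Duo with 100 ng firefly luc2P reporter carrying the gene's 3' UTR, 20 ng Renilla pRL-TK control and 2.5 pmol miRNA mimic. Dual-luciferase activities were read 48 h post-transfection. The interaction score is the log-transformed firefly/Renilla ratio as a per-plate robust z-score (median, median absolute deviation), median-centred per miRNA and averaged over at least two independent screens; more negative indicates interaction.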

NOTCH1 = tested on: NOTCH1
Procedure, shortened: as §1

MYCN = tested on: MYCN
Procedure, shortened: as §1

PHOX2B = tested on: PHOX2B
Procedure, shortened: as §1

HRAS = tested on: HRAS
Procedure, shortened: as §1

ZEB2 = tested on: ZEB2
Procedure, shortened: as §1

FBXW7 = tested on: FBXW7
Procedure, shortened: as §1

RB1 = tested on: RB1
Procedure, shortened: as §1

MYC = tested on: MYC
Procedure, shortened: as §1

EZH2 = tested on: EZH2
Procedure, shortened: as §1

TP53 = tested on: TP53
Procedure, shortened: as §1

MYB = tested on: MYB
Procedure, shortened: as §1

BRCA2 = tested on: BRCA2
Procedure, shortened: as §1

MYT1L = tested on: MYT1L
Procedure, shortened: as §1

Row | Sequence | 3' UTR reporter interaction score (PHF6) | 3' UTR reporter interaction score (NOTCH1) | 3' UTR reporter interaction score (MYCN) | 3' UTR reporter interaction score (PHOX2B) | 3' UTR reporter interaction score (HRAS) | 3' UTR reporter interaction score (ZEB2) | 3' UTR reporter interaction score (FBXW7) | 3' UTR reporter interaction score (RB1) | 3' UTR reporter interaction score (MYC) | 3' UTR reporter interaction score (EZH2) | 3' UTR reporter interaction score (TP53) | 3' UTR reporter interaction score (MYB) | 3' UTR reporter interaction score (BRCA2) | 3' UTR reporter interaction score (MYT1L)
1 | UGAGGUAGUAGGUUGUAUAGUU | 2.23 | -0.241 | -4.02 | -1.51 | 0.245 | -0.683 | 0.0535 | -1.04 | -1.94 | -3.3 | 0.766 | 0.376 | 0.954 | -0.405
2 | AACCAGCACCCCAACUUUGGAC | -2.04 | -0.388 | 0.781 | -0.923 | 0.0381 | 1.09 | -7.19 | -1.29 | 0.864 | 1.33 | 0.244 | -1.09 | -0.175 | 0.0434
3 | GCGACCCAUACUUGGUUUCAG | -1.74 | 0.351 | 0.527 | -1.24 | -0.348 | -0.392 | 0.104 | -1.26 | -0.469 | 1.08 | -0.0561 | 0.445 | 0.00941 | -5.03e-17
4 | UCGUACCGUGAGUAAUAAUGC | 1.63 | -1.54 | 0.512 | -1.05 | -0.495 | 0.34 | -0.162 | -1.12 | -0.268 | 0.753 | 0.516 | -2.72 | 0.63 | -0.417
5 | UAGUGCAAUAUUGCUUAUAGGGUUU | 0.108 | 0.766 | 0.515 | -0.0733 | 0.0165 | -0.0644 | 0.629 | 1.16 | 0.454 | -1.22 | -1.04 | -2.42 | -0.656 | 0.572
6 | AUAAUACAUGGUUAACCUCUUU | -0.737 | 0.871 | 1.04 | -0.62 | -0.143 | -2.7 | -0.808 | -0.631 | 0.024 | 0 | -0.592 | 1.01 | -0.764 | 0.598
7 | GGUAGAUUCUCCUUCUAUGAG | 0.87 | -0.435 | 0.767 | 0.393 | -0.338 | 0.717 | 1.14 | -0.935 | 0.11 | -0.351 | -0.00155 | 0.783 | -0.394 | 1.11
8 | AGACCUGGCCCAGACCUCAGC | -0.218 | -0.568 | 0.863 | -0.381 | -0.381 | -0.702 | 0.099 | -2.21 | 0.0891 | 0.316 | 0.562 | 0.0206 | -0.79 | -3.18
9 | AGGCUGCGGAAUUCAGGAC | 1.89 | 0.93 | 0.119 | -0.147 | -1.18 | 2.21 | 0.871 | 0.76 | -0.912 | -1.27 | -1.78 | 0.132 | -1.7 | 1.31
10 | AUCAGCAAACAUUUAUUGUGUG | 1.01 | 0.157 | -0.181 | 1.35 | -1.06 | 1.25 | -0.701 | 1.07 | -0.19 | -1.04 | 0.16 | 1.62 | 0.0901 | -0.934
11 | UGUAAACAUCCUACACUCUCAGC | 0.545 | -1.62 | -0.445 | 0.58 | 0.698 | -2.01 | 0.711 | 0.235 | -0.915 | -0.7 | 0.239 | 0.661 | 0.774 | 0.183
12 | AUUGACACUUCUGUGAGUAG | -0.709 | -0.955 | 0.177 | -1.35 | -0.309 | -1.2 | -1.37 | 0.465 | -0.339 | -0.495 | 0.785 | 0.756 | 0.358 | 0.508
13 | UACAGUAUAGAUGAUGUACUAG | 0.845 | 0.141 | -0.388 | 1.45 | -0.991 | 0.857 | -1.17 | 0.00103 | -0.27 | 0.0925 | 0.564 | 1.2 | -0.483 | 0.926
14 | AACAGGUGACUGGUUAGACAA | -0.792 | 1.15 | -1.32 | 2.14 | 0.125 | -0.428 | 1.13 | -0.637 | -1.37 | 0.144 | -0.34 | -0.0471 | -0.352 | -0.793
15 | UUGUGCUUGAUCUAACCAUGU | 0.117 | 0.182 | -0.328 | -1.73 | -0.276 | -0.746 | 0.164 | 0.758 | 0.0929 | 0.222 | -0.638 | 0.205 | 0.391 | -0.134
16 | CCACUGCCCCAGGUGCUGCUGG | 0.422 | -1.62 | 0.562 | 0.479 | -0.594 | -1.03 | -0.902 | 0.0205 | 0.494 | -0.183 | -1.28 | 0 | -0.289 | 1.35
17 | AUCGGGAAUGUCGUGUCCGCC | 1.55 | -0.49 | -0.166 | 0.773 | 0.0629 | 0.211 | 0.361 | -0.355 | -1.57 | -0.604 | 0.313 | -0.74 | 0.225 | -0.0689
18 | UAGCAGCACAGAAAUAUUGGC | 1.22 | -0.212 | -0.51 | 0.776 | -1.27 | 2.12 | -1.49 | 0.887 | -0.447 | -0.914 | 0.439 | -2.7 | -0.194 | -1.5
19 | UAGCUUAUCAGACUGAUGUUGA | 0.231 | -0.0874 | -0.604 | 0.355 | -0.166 | -0.0716 | 0.067 | 0.943 | -0.465 | 0.437 | -0.564 | 0.65 | -0.228 | -0.0152
